Reference: patent US9676721B2, “Compounds and compositions for the inhibition of NAMPT” (FORMA TM, LLC, priority 2010, dated 2017)

Experiments:
[1] = biological target: NAMPT (Homo sapiens (Human), UniProt P43490); experiment: Biochemical Inhibition Assay (NAMPT enzymatic reaction, NMN by mass spectrometry); conditions: recombinant His-tagged NAMPT 33 nM, 1 μM NAM, 30 minutes; read-out: Biochem IC50
Description: Biochemical Inhibition Assay NAMPT Protein Purification Recombinant His-tagged NAMPT was produced in E. coli cells, purified over a Ni column, and further purified over a size-exclusion column by XTAL Biostructures. The NAMPT Enzymatic Reaction The NAMPT enzymatic reactions were carried out in Buffer A (50 mM Hepes pH 7.5, 50 mM NaCl, 5 mM MgCl2, and 1 mM THP) in 96-well V-bottom plates. The compound titrations were performed in a separate dilution plate by serially diluting the compounds in DMSO to make a 100× stock. […] Background and signal strength was determined by addition (or non-addition) of a serial dilution of NMN to a pre-quenched enzyme and cofactor mix. Quantification of NMN A mass spectrometry-based assay was used to measure the NAMPT reaction product (NMN) and the internal control (L-Cystathionine). NMN and L-Cystathionine were detected using the services of Biocius Lifesciences with the RapidFire system. In short, the NMN and L-Cystathionine are bound to a graphitic carbon cartridge in 0.1% formic acid, eluted in 30% acetonitrile buffer, and injected into a Sciex 4000 mass spectrometer. The components of the sample were ionized with electrospray ionization and the positive ions were detected. […] The fragments are quantified and the analyzed by the following method. % Inhibitions are Determined Using this Method. First the NMN signal is normalized to the L-Cystathionine signal by dividing the NMN signal by the L-Cystathionine signal for each well. The signal from the background wells are averaged and subtracted from the test plates. […] IC50s are Determined Using Excel and this Formula.

[2] = system: A2780 cells; experiment: In-Vitro Cell Proliferation Assay (SRB); format: cell-based
Description: In-Vitro Cell Proliferation Assay […] After overnight incubation at 37° C. and 5% CO2, the compound titrations were performed in a separate dilution plate by serially diluting the compounds in DMSO to make a 1000× stock. The compounds were then further diluted to 10× final concentration in culture media, whereupon 20 μL of each dilution was added to the plated cells with controls (e.g. DMSO and blank) to make a final volume of 200 μL. The final DMSO concentration in each well was 0.1%. The plates were then incubated for 72 hours at 37° C. in a 5% CO2 incubator. The number of viable cells was then assessed using sulforhodamine B (SRB) assay. Cells were fixed at 4° C. for 1 hour with the addition of 50 μL 30% trichloroacetic acid (TCA) to make a final concentration of 6% TCA. The plates were washed four times with H2O and allowed to dry for at least 1 hour, whereupon 100 μL of a […] SRB in 1% acetic acid solution was added to each well and incubated at room temperature for at least 30 minutes. The plates were then washed three times with 1% acetic acid, dried, and treated with 100 μL of 10 mM Tris-Base solution. The plates were then read in a microplate reader at an absorbance of 570 nm. Background was generated on a separate plate with media only. Method for Determining % Inhibition First, the signals from the background plate are averaged, then the background was subtracted from the test plates. […] Formula for Determining IC50 Values: […] Specificity of Cytotoxicity. Inhibition of NAMPT could be reversed by the addition of NAM or NMN. The specificity of the compounds were determined via cell viability assay in the presence of the compound and either NAM or NMN. Percent inhibitions were determined using the method given above.

NAMPT, sequence (P43490 whole entry): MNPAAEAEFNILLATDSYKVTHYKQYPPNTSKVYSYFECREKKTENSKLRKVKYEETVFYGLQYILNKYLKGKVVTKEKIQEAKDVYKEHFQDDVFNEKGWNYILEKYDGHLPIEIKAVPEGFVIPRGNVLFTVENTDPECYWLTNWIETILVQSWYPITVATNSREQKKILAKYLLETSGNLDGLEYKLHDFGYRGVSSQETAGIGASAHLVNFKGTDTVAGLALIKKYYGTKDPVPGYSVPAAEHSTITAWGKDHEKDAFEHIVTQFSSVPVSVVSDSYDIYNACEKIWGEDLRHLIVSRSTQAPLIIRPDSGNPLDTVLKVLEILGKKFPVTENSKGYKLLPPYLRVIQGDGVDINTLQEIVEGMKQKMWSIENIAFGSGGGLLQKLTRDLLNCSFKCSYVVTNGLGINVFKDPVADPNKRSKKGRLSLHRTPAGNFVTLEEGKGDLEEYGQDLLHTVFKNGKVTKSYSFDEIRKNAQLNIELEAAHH

SMILES | IC50 [1] | IC50 ([2]; Homo sapiens, A2780, 72 h) | IC50 ([2]; 72 hours)
N#CN=C(NCc1ccc(S(=O)(=O)c2ccc(Cl)c(Cl)c2)cc1)Nc1ccncc1 [2-cyano-1-({4-[(3,4-dichlorobenzene)sulfonyl]phenyl}methyl)-3-(pyridin-4-yl)guanidine] | 1.7 nM | 1 nM | –
N#C/N=C(\NCc1ccc(S(=O)(=O)c2ccc(N3CCOCC3)cc2)cc1)Nc1ccncc1 [2-cyano-1-[(4-{[4-(morpholin-4-yl)benzene]sulfonyl}phenyl)methyl]-3-(pyridin-4-yl)guanidine] | 1.5 nM | 2.8 nM | –
CCCn1cc(S(=O)(=O)c2ccc(CNC(=NC#N)Nc3ccncc3)cc2)cn1 [2-cyano-1-{[4-(1-propyl-1H-pyrazole-4-sulfonyl)phenyl]methyl}-3-(pyridin-4-yl)guanidine] | 4.1 nM | 6.4 nM | –
N#CN=C(NCc1ccc(S(=O)(=O)c2ccc(C(=O)N3CCCC3)cc2)cc1)Nc1ccncc1 [2-cyano-3-(pyridin-4-yl)-1-{[4-({4-[(pyrrolidin-1-yl)carbonyl]benzene}sulfonyl)phenyl]methyl}guanidine] | 4.8 nM | 13.4 nM | –
Cc1ccc(S(=O)(=O)c2ccc(CN/C(=N\C#N)Nc3ccncc3)cc2)cc1 [2-cyano-1-({4-[(4-methylbenzene)sulfonyl]phenyl}methyl)-3-(pyridin-4-yl)guanidine] | 2.5 nM | 2.6 nM | –
CCCS(=O)(=O)Nc1cccc(S(=O)(=O)c2ccc(CNC(=NC#N)Nc3ccncc3)cc2)c1 [2-cyano-1-[(4-{[3-(propane-1-sulfonamido)benzene]sulfonyl}phenyl)methyl]-3-(pyridin-4-yl)guanidine] | 2.1 nM | 23.3 nM | –
N#C/N=C(\NCc1ccc(S(=O)(=O)c2ccccc2)cc1)NCc1ccn2ccnc2c1 [2-cyano-1-(imidazo[1,2-a]pyridin-7-ylmethyl)-3-(4-(phenylsulfonyl)benzyl)guanidine] | 266 nM | 326 nM | –
N#CN=C(NCc1ccc(S(=O)(=O)c2ccc(Cl)cc2)cc1)Nc1ccncc1 [1-({4-[(4-chlorobenzene)sulfonyl]phenyl}methyl)-2-cyano-3-(pyridin-4-yl)guanidine] | 3.6 nM | 3.7 nM | –
N#C/N=C(\NCc1ccc(S(=O)(=O)c2ccc(F)cc2)cc1)Nc1ccncc1 [2-cyano-3-({4-[(4-fluorobenzene)sulfonyl]phenyl}methyl)-1-(pyridin-4-yl)guanidine] | 2 nM | 13 nM | –
COCc1cccc(S(=O)(=O)c2ccc(CNC(=NC#N)Nc3ccncc3)cc2)c1 [2-cyano-1-[(4-{[3-(methoxymethyl)benzene]sulfonyl}phenyl)methyl]-3-(pyridin-4-yl)guanidine] | 7.2 nM | 5.9 nM | –
CCS(=O)(=O)c1cccc(S(=O)(=O)c2ccc(CNC(=NC#N)Nc3ccncc3)cc2)c1 [2-cyano-1-[(4-{[3-(ethanesulfonyl)benzene]sulfonyl}phenyl)methyl]-3-(pyridin-4-yl)guanidine] | 1.8 nM | – | 13.3 nM
COc1ccc(S(=O)(=O)c2ccc(CNC(=NC#N)Nc3ccncc3)cc2)c(OC)n1 [2-cyano-1-{[4-(2,6-dimethoxypyridine-3-sulfonyl)phenyl]methyl}-3-(pyridin-4-yl)guanidine] | 6.8 nM | 3.4 nM | –
N#C/N=C(\NCc1ccc(S(=O)(=O)c2ccccc2)cc1)Nc1ccncc1 [3-{[4-(benzenesulfonyl)phenyl]methyl}-2-cyano-1-(pyridin-4-yl)guanidine] | 2 nM | 12 nM | –
N#CN=C(NCc1ccc(S(=O)(=O)c2ccnc(N3CCOCC3)c2Cl)cc1)Nc1ccncc1 [1-({4-[3-chloro-2-(morpholin-4-yl)pyridine-4-sulfonyl]phenyl}methyl)-2-cyano-3-(pyridin-4-yl)guanidine] | 3.4 nM | 4.1 nM | –
COc1cc(Cl)ccc1S(=O)(=O)c1ccc(CNC(=NC#N)Nc2ccncc2)cc1 [1-({4-[(4-chloro-2-methoxybenzene)sulfonyl]phenyl}methyl)-2-cyano-3-(pyridin-4-yl)guanidine] | 3 nM | 1.9 nM | –
COc1cc(S(=O)(=O)c2ccc(CNC(=NC#N)Nc3ccncc3)cc2)ccc1C [2-cyano-1-({4-[(3-methoxy-4-methylbenzene)sulfonyl]phenyl}methyl)-3-(pyridin-4-yl)guanidine] | 1.2 nM | 0.8 nM | –
COc1ccc(S(=O)(=O)c2ccc(CNC(=NC#N)Nc3ccncc3)cc2)cc1Cl [1-({4-[(3-chloro-4-methoxybenzene)sulfonyl]phenyl}methyl)-2-cyano-3-(pyridin-4-yl)guanidine] | 2.6 nM | 4.9 nM | –
N#CN=C(NCc1ccc(S(=O)(=O)c2ccc(N3CCOCC3)nc2)cc1)Nc1ccncc1 [2-cyano-1-({4-[6-(morpholin-4-yl)pyridine-3-sulfonyl]phenyl}methyl)-3-(pyridin-4-yl)guanidine] | 1.9 nM | 3.3 nM | –
COc1ccc(Cl)cc1S(=O)(=O)c1ccc(CNC(=NC#N)Nc2ccncc2)cc1 [1-({4-[(5-chloro-2-methoxybenzene)sulfonyl]phenyl}methyl)-2-cyano-3-(pyridin-4-yl)guanidine] | 5 nM | 6.4 nM | –
Cc1ccc(S(=O)(=O)c2ccc(CNC(=NC#N)Nc3ccncc3)cc2)cn1 [2-cyano-1-{[4-(6-methylpyridine-3-sulfonyl)phenyl]methyl}-3-(pyridin-4-yl)guanidine] | 1.4 nM | 6.3 nM | –
Cn1cc(S(=O)(=O)c2ccc(CNC(=NC#N)Nc3ccncc3)cc2)cn1 [2-cyano-1-{[4-(1-methyl-1H-pyrazole-4-sulfonyl)phenyl]methyl}-3-(pyridin-4-yl)guanidine] | 4.3 nM | 49.3 nM | –
CC(=O)c1ccc(S(=O)(=O)c2ccc(CNC(=NC#N)Nc3ccncc3)cc2)cc1 [1-({4-[(4-acetylbenzene)sulfonyl]phenyl}methyl)-2-cyano-3-(pyridin-4-yl)guanidine] | 5 nM | 7.3 nM | –
N#CN=C(NCc1ccc(S(=O)(=O)c2cccc3ccccc23)cc1)Nc1ccncc1 [2-cyano-1-{[4-(naphthalene-1-sulfonyl)phenyl]methyl}-3-(pyridin-4-yl)guanidine] | 3.8 nM | 3 nM | –
CN(C)C(=O)c1cc(F)cc(S(=O)(=O)c2ccc(CNC(=NC#N)Nc3ccncc3)cc2)c1 [3-[(4-{[2-cyano-3-(pyridin-4-yl)carbamimidamido]methyl}benzene)sulfonyl]-5-fluoro-N,N-dimethylbenzamide] | 4.6 nM | 12.8 nM | –
N#CN=C(NCc1ccc(S(=O)(=O)c2cccc(C(=O)NC3CCCC3)c2)cc1)Nc1ccncc1 [3-[(4-{[2-cyano-3-(pyridin-4-yl)carbamimidamido]methyl}benzene)sulfonyl]-N-cyclopentylbenzamide] | 6.6 nM | 28.3 nM | –
CCOc1ccc(S(=O)(=O)c2ccc(CNC(=NC#N)Nc3ccncc3)cc2)cc1 [2-cyano-1-({4-[(4-ethoxybenzene)sulfonyl]phenyl}methyl)-3-(pyridin-4-yl)guanidine] | 5.6 nM | 3.3 nM | –
COc1cc(Cl)cc(S(=O)(=O)c2ccc(CNC(=NC#N)Nc3ccncc3)cc2)c1 [1-({4-[(3-chloro-5-methoxybenzene)sulfonyl]phenyl}methyl)-2-cyano-3-(pyridin-4-yl)guanidine] | 4.6 nM | 1.6 nM | –
N#CN=C(NCc1ccc(S(=O)(=O)c2cccc(C(=O)N3CCOCC3)c2)cc1)Nc1ccncc1 [2-cyano-1-{[4-({3-[(morpholin-4-yl)carbonyl]benzene}sulfonyl)phenyl]methyl}-3-(pyridin-4-yl)guanidine] | 1.7 nM | 70.5 nM | –
N#CN=C(NCc1ccc(S(=O)(=O)c2cccc3cccnc23)cc1)Nc1ccncc1 [2-cyano-3-(pyridin-4-yl)-1-{[4-(quinoline-8-sulfonyl)phenyl]methyl}guanidine] | 2.9 nM | 14.1 nM | –
